Experiment [1] has as its target T1, 5-HT2A receptor (Homo sapiens (Human), UniProt P28223). Nature of the experiment: FLIPR Ca2+ flux functional assay at 5-HT2A (HEK293). The note with it: for 5-HT2A % Act @ Max Conc.: HEK293, at max concentration. Background: Calcium assays in cells follow changes in intracellular calcium, usually with a dye or a luminescent sensor.
The next experiment concerns the target 5-HT2B receptor (Homo sapiens (Human), UniProt P41595). The experiment is described as follows: FLIPR Ca2+ flux functional assay at 5-HT2B (HEK293). The note with it: for 5-HT2B % Act @ Max Conc.: HEK293, at max concentration.
The target of a further experiment is 5-HT1A receptor (Homo sapiens (Human), UniProt P08908). Nature of the experiment: FLIPR Ca2+ flux functional assay at 5-HT1A (CHO cells). The settings on record: for 5-HT1A % Act @ Max Conc.: at max concentration.
The target of experiment [2] is T1, 5-HT2A receptor. Nature of the experiment: 5-HT2A receptor radioligand binding with [3H]ketanserin. The note with it: read-out: Ki at 5-HT2A Receptor (nM) ([3H]ketanserin); HEK293 stable cell line, 1 nM [3H]ketanserin, 1 h, 25 °C.
A further experiment has as its target human 5-HT2C receptor (Homo sapiens (Human), UniProt P28335). Nature of the experiment: FLIPR Ca2+ flux functional assay at 5-HT2C (Eurofins DiscoverX). The format is cell-based.
The next experiment deals with C57BL/6 mice. The experiment is described as follows: Automated (video tracking) head twitch response (HTR) assay in mice. The format is in vivo. The note with it: SC. The protocol:
Disclosed compounds were tested for their ability to induce a head twitch response (HTR) in mice using an automated video tracking procedure, with the results summarized in Table 5. […] The phenyl Compound 44 was substantially more efficacious at inducing HTR than its pyridine counterpart Compound 29, in agreement with the generally lower maximal efficacy of the disclosed pyridine compounds for signaling through 5-HT2A receptors.
Animals. Adult male C57BL/6 mice aged 8-10 weeks (body weight 20-25 g) were used in these experiments. Animals were housed under controlled temperatures and 12-hour light/dark cycles (lights on between 07:00-19:00 h), with ad libitum food and water. The protocol was approved by the Institutional Animal Care and Use Committee at the study site. This study was carried out in strict accordance with the recommendations in the Guide for the Care and Use of Laboratory Animals of the National Institutes of Health. All efforts were made to minimize suffering.
Drugs and Drug Administration. […] was commercially obtained. Disclosed compounds were synthesized as described above. They were administered subcutaneously (SC) dissolved in saline (or saline acidified with 1-2 molar equivalents HCl to form the salt in situ for freebase compounds) at a volume of 10 mL/kg. Five doses were tested, with N=5-8 animals/group. Doses were calculated on the basis of the freebase, except for DOI, which was calculated based on the HCl salt.
Procedure. Mice were administered one dose of the drug and immediately placed into a small open field for behavioral observation. High-speed video of animals' behavior was captured continuously for 20 min. Video recordings were imported into an image processing software, which detects multiple points of interest on each animal's body, including the left and right ear. HTR events were defined as periodic deviations of ear locations from temporally averaged ear locations. Predefined thresholds for magnitude and frequency of location deviations were used to filter […] events from random head movements. The method was validated by comparing detected events with manual (human) observations and found to have an accuracy >95%. The total number of HTR events counted during the 20-min recording were determined for each animal at each dose.
Statistical Analysis. Analysis was performed using GraphPad Prism 9. Dose-response curves were fit via non-linear regression using the Gaussian 2020 function in Prism in order to determine the ED50 and Emax for each compound.

The EC50 is the concentration needed to bring the measured effect to its halfway point. The Ki is the dissociation constant of the complex between target and ligand, obtained from inhibition or displacement. The term ED50 denotes the midpoint of the dose-response relation.

Where two headings read alike, the source gives them in different places.

Sequence of 5-HT2B receptor (P41595 whole entry, looked up): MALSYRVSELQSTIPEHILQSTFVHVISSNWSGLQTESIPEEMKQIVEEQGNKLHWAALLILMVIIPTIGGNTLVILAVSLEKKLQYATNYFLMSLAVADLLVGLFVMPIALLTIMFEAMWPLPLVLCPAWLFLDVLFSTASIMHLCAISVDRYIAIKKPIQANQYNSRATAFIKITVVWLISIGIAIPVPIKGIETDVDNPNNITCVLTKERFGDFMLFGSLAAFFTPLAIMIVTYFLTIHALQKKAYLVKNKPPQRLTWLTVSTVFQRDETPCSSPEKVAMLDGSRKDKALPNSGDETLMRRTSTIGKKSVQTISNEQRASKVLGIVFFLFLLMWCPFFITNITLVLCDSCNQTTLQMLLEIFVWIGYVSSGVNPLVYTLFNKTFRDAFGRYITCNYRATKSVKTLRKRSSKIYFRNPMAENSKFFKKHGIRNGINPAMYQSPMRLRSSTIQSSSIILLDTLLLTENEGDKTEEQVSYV
Sequence of human 5-HT2C receptor (P28335 whole entry, looked up): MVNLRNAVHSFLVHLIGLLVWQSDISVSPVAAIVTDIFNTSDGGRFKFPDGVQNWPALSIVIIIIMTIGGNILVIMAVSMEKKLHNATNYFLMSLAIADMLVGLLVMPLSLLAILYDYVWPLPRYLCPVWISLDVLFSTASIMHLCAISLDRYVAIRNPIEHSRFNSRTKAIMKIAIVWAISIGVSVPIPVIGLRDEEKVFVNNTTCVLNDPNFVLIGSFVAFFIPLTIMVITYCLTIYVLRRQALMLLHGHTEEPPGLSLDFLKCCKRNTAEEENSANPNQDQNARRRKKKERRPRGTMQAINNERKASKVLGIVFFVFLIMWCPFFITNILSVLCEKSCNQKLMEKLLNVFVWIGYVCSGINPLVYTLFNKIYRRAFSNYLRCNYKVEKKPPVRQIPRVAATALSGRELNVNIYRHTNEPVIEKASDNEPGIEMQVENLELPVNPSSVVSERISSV
Protocol for human 5-HT2C receptor: Functional Assays at 5-HT2C Receptors. […] Probenecid was prepared fresh. Cells were loaded with dye prior to testing and incubated at 37° C. for 30-60 minutes. After dye loading, cells were removed from the incubator and 10 μL HBSS/20 mM Hepes was added. 3× vehicle was included in the assay buffer. Cells were incubated for 30 mins at room temperature in the dark to equilibrate plate temperature. Intermediate dilution of sample stocks was performed to generate 4× sample in assay buffer. Compound agonist activity was measured on a FLIPR Tetra (MDS). Calcium mobilization was monitored for 2 minutes and 10 μL 4× sample in HBSS/20 mM Hepes was added to the cells 5 seconds into the assay.

With `COc1cc(CCCC(F)(F)F)c(OC)nc1CCN` [Compound 33, 2-(3,6-dimethoxy-5-(4,4,4-trifluorobutyl)pyridin-2-yl)ethan-1-amine], the concentration for a half-maximal effect (EC50) at 5-HT2A receptor [1] is 45.7 nM; on 5-HT2B receptor, over 10000 nM; on 5-HT1A receptor, over 100000 nM. On 5-HT2A receptor [1] (Ca2+ flux), the “5-HT2A % Act @ Max Conc.” value is given as 68.5%. In addition, the “5-HT2B % Act @ Max Conc.” value at 5-HT2B receptor (Ca2+ flux) is reported as 1.05%. The “5-HT1A % Act @ Max Conc.” value on 5-HT1A receptor (Ca2+ flux, CHO cells) worked out at 10.46%. At 5-HT2A receptor [2], the inhibition constant (Ki) worked out at 104 nM.
With `CCc1cc(OC)c(CC(C)N)nc1OC` (stereo not shown) [Compound 20, 1-(5-ethyl-3,6-dimethoxypyridin-2-yl)propan-2-amine], the concentration giving a half-maximal response (EC50) on 5-HT2A receptor [1] was 5.79 nM; on 5-HT2B receptor, 293 nM; at 5-HT1A receptor, over 100000 nM. For the same molecule, the “5-HT2A % Act @ Max Conc.” value at 5-HT2A receptor [1] (Ca2+ flux) is reported as 98.11%. Further, the “5-HT2B % Act @ Max Conc.” value at 5-HT2B receptor (Ca2+ flux) came to 75.75%. In addition, the “5-HT1A % Act @ Max Conc.” value at 5-HT1A receptor (Ca2+ flux, CHO cells) is reported as 0.9%. Also, at 5-HT2A receptor [2], the inhibition constant (Ki) was 322 nM.
For the molecule `COc1cc(Cl)c(OC)nc1CC(C)N` (stereo not shown) [Compound 17, 1-(5-chloro-3,6-dimethoxypyridin-2-yl)propan-2-amine], the EC50 was 6.27 nM on 5-HT2A receptor [1], 540 nM on 5-HT2B receptor and over 100000 nM at 5-HT1A receptor. In addition, the “5-HT2A % Act @ Max Conc.” value at 5-HT2A receptor [1] (Ca2+ flux) is given as 99.4%. Moreover, the “5-HT2B % Act @ Max Conc.” value on 5-HT2B receptor (Ca2+ flux) turned out to be 70.03%. The “5-HT1A % Act @ Max Conc.” value on 5-HT1A receptor (Ca2+ flux, CHO cells) is listed as 0.79%. On 5-HT2A receptor [2], the inhibition constant (Ki) is 404 nM.
Take `COc1cc(CCCCCF)c(OC)nc1CCN` [Compound 34, 2-(5-(5-fluoropentyl)-3,6-dimethoxypyridin-2-yl)ethan-1-amine]: the EC50 at 5-HT2A receptor [1] was 13.5 nM; at 5-HT2B receptor it was over 10000 nM; on 5-HT1A receptor, over 100000 nM. Besides, the “5-HT2A % Act @ Max Conc.” value at 5-HT2A receptor [1] (Ca2+ flux) worked out at 64.66%. Further, at 5-HT2B receptor (Ca2+ flux), the “5-HT2B % Act @ Max Conc.” value stood at 7.93%. At 5-HT1A receptor (Ca2+ flux, CHO cells), the “5-HT1A % Act @ Max Conc.” value is recorded as 4.8%. Besides, the inhibition constant Ki on 5-HT2A receptor [2] turned out to be 10.2 nM.
Regarding `CCc1cc(OC)c(CCN)nc1OC` [Compound 19, 2-(5-ethyl-3,6-dimethoxypyridin-2-yl)ethan-1-amine], the concentration giving a half-maximal response (EC50) was 20.3 nM on 5-HT2A receptor [1], 218 nM at 5-HT2B receptor and 12000 nM on 5-HT1A receptor. At 5-HT2A receptor [1] (Ca2+ flux), the “5-HT2A % Act @ Max Conc.” value is 96.03%. Moreover, the “5-HT2B % Act @ Max Conc.” value at 5-HT2B receptor (Ca2+ flux) was 20.07%. In addition, the “5-HT1A % Act @ Max Conc.” value on 5-HT1A receptor (Ca2+ flux, CHO cells) came to 1.25%. For the same molecule, the Ki at 5-HT2A receptor [2] turned out to be 111 nM.
As to `COc1cc(CCN)c(OC)cc1Br` [Compound 2C-B, 2C-B, reference compound], the “5-HT2A % Act @ Max Conc.” value on 5-HT2A receptor [1] (Ca2+ flux) is 99.7%. Besides, the EC50 at 5-HT2A receptor [1] (read-out: 5-HT2A EC50, Ca2+ flux, HEK293) is 0.478 nM; on 5-HT2B receptor (read-out: 5-HT2B EC50, Ca2+ flux, HEK293), 20 nM; at 5-HT1A receptor (read-out: 5-HT1A EC50, Ca2+ flux, CHO cells), 33100 nM. Moreover, the “5-HT2B % Act @ Max Conc.” value on 5-HT2B receptor (Ca2+ flux) is reported as 73.3%. Further, the “5-HT1A % Act @ Max Conc.” value on 5-HT1A receptor (Ca2+ flux, CHO cells) is 47.8%. Further, the Ki at 5-HT2A receptor [2] was 8.25 nM.
Turning to `COc1cc(C2CC2)c(OC)nc1CC(C)N` (stereo not shown) [Compound 27, 1-(5-cyclopropyl-3,6-dimethoxypyridin-2-yl)propan-2-amine], the EC50 at 5-HT2A receptor [1] was 15 nM; on 5-HT2B receptor, 246 nM; on 5-HT1A receptor, over 100000 nM. Also, the “5-HT2A % Act @ Max Conc.” value on 5-HT2A receptor [1] (Ca2+ flux) stood at 104.13%. On 5-HT2B receptor (Ca2+ flux), the “5-HT2B % Act @ Max Conc.” value was determined as 61.18%. Further, the “5-HT1A % Act @ Max Conc.” value on 5-HT1A receptor (Ca2+ flux, CHO cells) was 0.49%. Also, the inhibition constant Ki at 5-HT2A receptor [2] was 304 nM.
On to `COc1cc(Br)c(OC)nc1CCN` [Compound 9, 2-(5-bromo-3,6-dimethoxypyridin-2-yl)ethan-1-amine], for which the 50% effective concentration (EC50) on human 5-HT2C receptor was 30.7 nM; on 5-HT2A receptor [1] it was 9.81 nM; on 5-HT2B receptor it was 764 nM; on 5-HT1A receptor it was over 100000 nM. On human 5-HT2C receptor (Ca2+ flux, human 5-HT2C, at max concentration), the “5-HT2C % Act @ Max Conc.” value is listed as 95.94%. For the same molecule, in the experiment on C57BL/6 mice (Mus musculus, 20 min, 20 min recording, read-out: ED50), the ED50 was 1.38 mg/kg. Moreover, the “Emax (HTR counts/20 min)” value in the experiment with C57BL/6 mice is 49.65 HTR counts/20 min. The “# HTR/20 min at Most Efficacious Dose” value with C57BL/6 mice (at most efficacious dose) is 45.75 HTR/20 min. The “Most Efficacious Dose; mg/kg” value in the experiment on C57BL/6 mice (dose giving the most HTR) was “(3.2) mg/kg”. The “5-HT2A % Act @ Max Conc.” value on 5-HT2A receptor [1] (Ca2+ flux) was 96.84%. For the same molecule, the “5-HT2B % Act @ Max Conc.” value at 5-HT2B receptor (Ca2+ flux) is recorded as 38.01%. Moreover, the “5-HT1A % Act @ Max Conc.” value at 5-HT1A receptor (Ca2+ flux, CHO cells) came to 2.11%.

The values above are taken from patent publication US20250270173A1, “PYRIDINE DERIVATIVES FOR TREATING PSYCHIATRIC DISORDERS” (GILGAMESH PHARMACEUTICALS, INC., priority 2022, published 2025).
